Data published in patent publication US10870647B2, “Imidazopyridine derivative, method for preparing same, and pharmaceutical composition containing same as active ingredient for preventing or treating cancer” (DAEGU-GYEONGBUK MEDICAL INNOVATION FOUNDATION, priority 2016, dated 2020).
Where two headings read alike, the source gives them in different places.

Key:
Assay in all cases: Kinase selectivity, scanMAX Kinase assay panel (DiscoverX), % control at 1 uM
Type in all cases: binding
[1] = target: T1, scanMAX Kinase assay panel (Homo sapiens, UniProt P51451); settings: BLK; 1 uM; read-out: Percent Control (%)
T1 construct: purchased DiscoverX
How it was run: (§1)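 Binding across the scanMAX kinase panel was tested at 1 uM compound. % control = (compound − positive control)/(negative control − positive control) × 100; below 35 counted as active.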

[2] = target: T2, scanMAX Kinase assay panel (Homo sapiens, UniProt P00533); settings: EGFR; 1 uM; read-out: Percent Control (%)
T2 construct: purchased DiscoverX
How it was run: as §1

[3] = target: T3, scanMAX Kinase assay panel (Homo sapiens, UniProt Q6P2M8); settings: CAMK1B; 1 uM; read-out: Percent Control (%)
T3 construct: purchased DiscoverX
How it was run: as §1

[4] = target: T4, scanMAX Kinase assay panel (Homo sapiens, UniProt Q16513); settings: PKN2; 1 uM; read-out: Percent Control (%)
T4 construct: purchased DiscoverX
How it was run: as §1

[5] = target: T5, scanMAX Kinase assay panel (Homo sapiens, UniProt P41743); settings: PRKCI; 1 uM; read-out: Percent Control (%)
T5 construct: purchased DiscoverX
T5 sequence (P41743 1-596): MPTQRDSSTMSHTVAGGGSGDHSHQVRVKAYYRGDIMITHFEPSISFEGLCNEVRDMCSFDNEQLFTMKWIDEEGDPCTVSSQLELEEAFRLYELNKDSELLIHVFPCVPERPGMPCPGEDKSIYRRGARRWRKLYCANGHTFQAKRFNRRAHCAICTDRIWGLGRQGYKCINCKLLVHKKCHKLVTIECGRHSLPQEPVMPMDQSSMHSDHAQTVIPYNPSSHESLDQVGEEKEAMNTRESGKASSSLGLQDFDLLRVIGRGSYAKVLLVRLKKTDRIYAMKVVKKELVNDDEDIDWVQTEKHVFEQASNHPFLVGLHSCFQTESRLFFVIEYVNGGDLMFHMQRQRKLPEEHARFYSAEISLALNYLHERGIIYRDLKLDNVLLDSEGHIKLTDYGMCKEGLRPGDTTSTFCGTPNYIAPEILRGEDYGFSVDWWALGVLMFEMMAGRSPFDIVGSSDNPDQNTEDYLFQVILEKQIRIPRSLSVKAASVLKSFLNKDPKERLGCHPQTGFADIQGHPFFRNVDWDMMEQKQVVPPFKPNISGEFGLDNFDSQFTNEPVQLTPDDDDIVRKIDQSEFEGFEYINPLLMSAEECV
How it was run: as §1

[6] = target: T6, scanMAX Kinase assay panel (Homo sapiens, UniProt Q9BVS4); settings: RIOK2; 1 uM; read-out: Percent Control (%)
T6 construct: purchased DiscoverX
How it was run: as §1

[7] = target: T7, scanMAX Kinase assay panel (Homo sapiens, UniProt Q8TBX8); settings: PIP5K2C; 1 uM; read-out: Percent Control (%)
T7 construct: purchased DiscoverX
T7 sequence (Q8TBX8 1-421): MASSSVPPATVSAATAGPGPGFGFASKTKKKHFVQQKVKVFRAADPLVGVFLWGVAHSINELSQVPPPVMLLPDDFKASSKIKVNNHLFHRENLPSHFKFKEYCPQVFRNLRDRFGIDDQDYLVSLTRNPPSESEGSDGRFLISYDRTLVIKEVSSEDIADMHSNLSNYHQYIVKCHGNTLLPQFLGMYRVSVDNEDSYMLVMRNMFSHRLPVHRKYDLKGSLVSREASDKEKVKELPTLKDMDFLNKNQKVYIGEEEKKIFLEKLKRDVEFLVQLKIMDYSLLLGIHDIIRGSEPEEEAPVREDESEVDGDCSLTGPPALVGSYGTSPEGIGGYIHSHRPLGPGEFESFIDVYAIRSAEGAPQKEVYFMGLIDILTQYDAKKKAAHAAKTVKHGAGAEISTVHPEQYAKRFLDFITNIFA
How it was run: as §1

[8] = target: T8, scanMAX Kinase assay panel (Homo sapiens, UniProt Q9UQM7); settings: CAMK2A; 1 uM; read-out: Percent Control (%)
T8 construct: purchased DiscoverX
How it was run: as §1

[9] = target: T9, scanMAX Kinase assay panel (Homo sapiens, UniProt Q9Y616); settings: IRAK3; 1 uM; read-out: Percent Control (%)
T9 construct: purchased DiscoverX
T9 sequence (Q9Y616 1-596): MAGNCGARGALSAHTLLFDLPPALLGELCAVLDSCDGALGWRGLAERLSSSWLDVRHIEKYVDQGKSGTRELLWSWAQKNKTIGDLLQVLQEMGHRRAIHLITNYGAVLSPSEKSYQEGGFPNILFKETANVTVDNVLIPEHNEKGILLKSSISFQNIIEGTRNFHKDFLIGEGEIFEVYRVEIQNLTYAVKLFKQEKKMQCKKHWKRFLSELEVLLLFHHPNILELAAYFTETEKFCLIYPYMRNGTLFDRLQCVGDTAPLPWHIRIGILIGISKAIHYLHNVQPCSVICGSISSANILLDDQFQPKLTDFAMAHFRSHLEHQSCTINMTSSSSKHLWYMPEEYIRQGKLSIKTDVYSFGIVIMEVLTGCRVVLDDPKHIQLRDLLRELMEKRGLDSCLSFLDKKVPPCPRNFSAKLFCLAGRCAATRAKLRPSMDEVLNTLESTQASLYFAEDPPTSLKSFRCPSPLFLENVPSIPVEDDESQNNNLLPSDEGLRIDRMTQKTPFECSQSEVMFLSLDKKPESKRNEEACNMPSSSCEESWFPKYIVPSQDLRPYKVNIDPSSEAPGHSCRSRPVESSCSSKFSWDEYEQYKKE
How it was run: as §1

[10] = target: T10, scanMAX Kinase assay panel (Homo sapiens, UniProt Q9H1R3); settings: MYLK2; 1 uM; read-out: Percent Control (%)
T10 construct: purchased DiscoverX
How it was run: as §1

[11] = target: T11, scanMAX Kinase assay panel (Homo sapiens, UniProt P00519, H396P); settings: 1 uM, read-out: Percent Control (%)
T11 construct: purchased DiscoverX
How it was run: as §1

T4 sequence (Q16513 whole entry): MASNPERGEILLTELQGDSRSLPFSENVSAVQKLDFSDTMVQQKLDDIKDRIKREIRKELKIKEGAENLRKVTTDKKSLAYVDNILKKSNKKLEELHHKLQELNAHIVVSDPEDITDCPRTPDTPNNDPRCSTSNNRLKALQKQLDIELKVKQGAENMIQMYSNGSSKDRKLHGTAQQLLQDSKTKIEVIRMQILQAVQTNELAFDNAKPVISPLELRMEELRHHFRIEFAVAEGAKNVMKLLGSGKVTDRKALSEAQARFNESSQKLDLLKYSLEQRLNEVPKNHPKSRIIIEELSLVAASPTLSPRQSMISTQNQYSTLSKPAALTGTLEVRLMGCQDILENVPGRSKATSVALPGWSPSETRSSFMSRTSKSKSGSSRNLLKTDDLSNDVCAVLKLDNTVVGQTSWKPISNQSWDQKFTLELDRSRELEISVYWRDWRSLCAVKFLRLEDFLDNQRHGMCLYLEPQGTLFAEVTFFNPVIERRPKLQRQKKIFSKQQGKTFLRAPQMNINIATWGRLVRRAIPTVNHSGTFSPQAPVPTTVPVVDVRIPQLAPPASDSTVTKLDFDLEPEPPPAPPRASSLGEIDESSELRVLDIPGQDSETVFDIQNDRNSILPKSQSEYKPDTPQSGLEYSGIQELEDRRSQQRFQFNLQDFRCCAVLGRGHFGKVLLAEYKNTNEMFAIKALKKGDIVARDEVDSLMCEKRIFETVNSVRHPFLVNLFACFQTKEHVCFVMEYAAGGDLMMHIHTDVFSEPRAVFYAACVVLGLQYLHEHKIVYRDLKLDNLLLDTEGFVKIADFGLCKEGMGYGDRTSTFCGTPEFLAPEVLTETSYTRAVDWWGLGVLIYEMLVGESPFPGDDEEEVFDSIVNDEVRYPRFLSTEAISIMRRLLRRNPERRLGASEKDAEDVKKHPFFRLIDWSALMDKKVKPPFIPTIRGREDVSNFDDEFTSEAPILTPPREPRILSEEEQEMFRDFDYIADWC
T8 sequence (Q9UQM7 whole entry): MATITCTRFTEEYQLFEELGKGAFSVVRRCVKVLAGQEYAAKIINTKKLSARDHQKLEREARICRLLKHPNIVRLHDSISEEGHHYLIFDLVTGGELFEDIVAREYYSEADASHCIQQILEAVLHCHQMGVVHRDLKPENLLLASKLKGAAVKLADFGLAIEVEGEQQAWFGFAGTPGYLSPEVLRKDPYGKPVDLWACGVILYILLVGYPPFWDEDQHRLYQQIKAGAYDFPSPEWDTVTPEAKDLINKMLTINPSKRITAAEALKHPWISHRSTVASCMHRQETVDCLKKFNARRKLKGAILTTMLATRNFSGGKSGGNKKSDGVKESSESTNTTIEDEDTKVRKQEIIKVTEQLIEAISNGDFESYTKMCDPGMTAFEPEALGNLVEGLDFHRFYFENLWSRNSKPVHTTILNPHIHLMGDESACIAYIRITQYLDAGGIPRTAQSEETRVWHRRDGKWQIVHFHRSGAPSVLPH
T3 sequence (Q6P2M8 whole entry): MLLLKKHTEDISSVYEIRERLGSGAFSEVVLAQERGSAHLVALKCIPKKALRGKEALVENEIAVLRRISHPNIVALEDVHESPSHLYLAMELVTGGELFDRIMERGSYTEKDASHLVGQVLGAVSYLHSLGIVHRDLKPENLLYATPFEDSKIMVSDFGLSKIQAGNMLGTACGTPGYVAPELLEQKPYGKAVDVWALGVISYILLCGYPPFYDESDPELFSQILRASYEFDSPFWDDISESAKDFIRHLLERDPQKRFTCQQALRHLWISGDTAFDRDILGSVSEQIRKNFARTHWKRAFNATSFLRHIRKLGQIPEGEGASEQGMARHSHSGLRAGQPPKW
T2 sequence (P00533 25-1210): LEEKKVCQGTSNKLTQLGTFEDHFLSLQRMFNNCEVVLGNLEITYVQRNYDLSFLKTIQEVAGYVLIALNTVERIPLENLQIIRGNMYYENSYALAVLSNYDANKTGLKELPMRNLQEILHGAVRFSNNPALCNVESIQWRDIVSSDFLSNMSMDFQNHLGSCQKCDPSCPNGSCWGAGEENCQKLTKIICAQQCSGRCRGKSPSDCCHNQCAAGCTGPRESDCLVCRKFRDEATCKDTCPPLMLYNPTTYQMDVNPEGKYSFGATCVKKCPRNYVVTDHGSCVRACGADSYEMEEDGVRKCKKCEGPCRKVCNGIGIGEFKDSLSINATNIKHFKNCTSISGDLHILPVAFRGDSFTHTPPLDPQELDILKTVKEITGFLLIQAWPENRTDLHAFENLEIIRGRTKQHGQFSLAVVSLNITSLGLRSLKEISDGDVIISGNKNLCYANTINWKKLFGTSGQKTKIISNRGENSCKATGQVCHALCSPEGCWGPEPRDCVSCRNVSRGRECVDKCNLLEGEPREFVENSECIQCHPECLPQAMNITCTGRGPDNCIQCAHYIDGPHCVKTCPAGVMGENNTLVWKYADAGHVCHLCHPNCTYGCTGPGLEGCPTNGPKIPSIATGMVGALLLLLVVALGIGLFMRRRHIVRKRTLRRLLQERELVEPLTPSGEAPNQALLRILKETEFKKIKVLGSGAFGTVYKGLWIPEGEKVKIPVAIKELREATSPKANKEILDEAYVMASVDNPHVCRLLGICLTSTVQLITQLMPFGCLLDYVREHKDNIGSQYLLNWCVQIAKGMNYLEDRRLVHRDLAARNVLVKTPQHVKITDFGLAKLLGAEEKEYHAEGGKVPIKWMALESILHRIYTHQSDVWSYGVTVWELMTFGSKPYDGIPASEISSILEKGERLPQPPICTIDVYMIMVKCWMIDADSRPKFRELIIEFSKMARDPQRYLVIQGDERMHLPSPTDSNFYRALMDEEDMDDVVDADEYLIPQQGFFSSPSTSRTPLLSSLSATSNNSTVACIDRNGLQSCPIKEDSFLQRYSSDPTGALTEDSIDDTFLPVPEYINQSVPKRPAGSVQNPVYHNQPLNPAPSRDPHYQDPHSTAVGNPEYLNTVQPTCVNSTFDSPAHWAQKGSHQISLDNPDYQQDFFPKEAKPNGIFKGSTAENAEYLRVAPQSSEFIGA
T1 sequence (P51451 whole entry): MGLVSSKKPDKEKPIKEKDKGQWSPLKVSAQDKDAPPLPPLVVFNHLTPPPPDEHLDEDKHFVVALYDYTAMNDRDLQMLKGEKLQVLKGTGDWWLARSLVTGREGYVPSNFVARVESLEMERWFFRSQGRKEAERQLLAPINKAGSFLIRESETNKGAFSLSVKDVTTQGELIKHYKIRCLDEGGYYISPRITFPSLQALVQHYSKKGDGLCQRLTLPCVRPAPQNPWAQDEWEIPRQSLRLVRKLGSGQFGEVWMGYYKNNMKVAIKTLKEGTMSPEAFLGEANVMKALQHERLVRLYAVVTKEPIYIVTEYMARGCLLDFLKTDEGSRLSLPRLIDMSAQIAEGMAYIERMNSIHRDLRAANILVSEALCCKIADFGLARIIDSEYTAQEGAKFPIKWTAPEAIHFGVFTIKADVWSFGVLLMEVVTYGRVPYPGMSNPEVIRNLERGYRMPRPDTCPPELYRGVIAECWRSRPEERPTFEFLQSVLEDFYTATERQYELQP
T6 sequence (Q9BVS4 whole entry): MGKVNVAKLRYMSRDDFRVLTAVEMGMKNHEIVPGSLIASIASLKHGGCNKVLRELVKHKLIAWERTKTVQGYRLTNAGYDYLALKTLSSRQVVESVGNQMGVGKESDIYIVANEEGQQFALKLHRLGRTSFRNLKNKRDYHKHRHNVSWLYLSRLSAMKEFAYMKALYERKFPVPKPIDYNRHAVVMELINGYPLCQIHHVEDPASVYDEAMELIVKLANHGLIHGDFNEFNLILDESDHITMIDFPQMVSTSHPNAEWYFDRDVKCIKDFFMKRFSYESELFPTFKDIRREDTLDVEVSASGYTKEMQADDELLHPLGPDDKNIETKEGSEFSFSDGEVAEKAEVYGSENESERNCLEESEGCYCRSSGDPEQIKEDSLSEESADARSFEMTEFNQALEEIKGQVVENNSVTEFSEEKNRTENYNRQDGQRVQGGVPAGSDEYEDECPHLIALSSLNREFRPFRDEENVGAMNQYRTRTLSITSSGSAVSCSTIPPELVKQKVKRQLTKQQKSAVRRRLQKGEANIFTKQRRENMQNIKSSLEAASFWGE
T10 sequence (Q9H1R3 whole entry): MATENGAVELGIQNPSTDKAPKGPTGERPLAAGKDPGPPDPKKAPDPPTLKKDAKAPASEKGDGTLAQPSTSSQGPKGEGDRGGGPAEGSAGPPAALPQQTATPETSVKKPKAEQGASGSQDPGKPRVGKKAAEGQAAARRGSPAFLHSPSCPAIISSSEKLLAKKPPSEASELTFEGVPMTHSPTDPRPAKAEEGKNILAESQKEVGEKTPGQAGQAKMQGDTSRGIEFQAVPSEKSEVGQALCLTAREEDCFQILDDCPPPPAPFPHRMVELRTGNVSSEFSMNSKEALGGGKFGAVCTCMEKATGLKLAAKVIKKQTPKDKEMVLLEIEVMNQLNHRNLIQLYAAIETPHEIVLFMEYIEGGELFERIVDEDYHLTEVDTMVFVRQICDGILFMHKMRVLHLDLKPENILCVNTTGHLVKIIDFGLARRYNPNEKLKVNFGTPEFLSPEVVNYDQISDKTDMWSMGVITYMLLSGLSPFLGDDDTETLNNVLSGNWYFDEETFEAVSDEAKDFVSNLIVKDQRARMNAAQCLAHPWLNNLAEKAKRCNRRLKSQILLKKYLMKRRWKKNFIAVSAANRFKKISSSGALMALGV

Row | SMILES | remaining binding at 1 µM [1] | remaining binding at 1 µM [2] | remaining binding at 1 µM [3] | remaining binding at 1 µM [4] | remaining binding at 1 µM [5] | remaining binding at 1 µM [6] | remaining binding at 1 µM [7] | remaining binding at 1 µM [8] | remaining binding at 1 µM [9] | remaining binding at 1 µM [10] | remaining binding at 1 µM ([11]; ABL1 (H396P)-nonphosphorylated) | remaining binding at 1 µM ([11]; ABL1 (H396P)-phosphorylated)
1 | Cc1ccc(C(=O)Nc2ccc(CN3CCN(C)CC3)c(C(F)(F)F)c2)cc1C#Cc1cnc2c(Nc3cnn(C)c3)cccn12 [Example 1, 4-methyl-3-((8-((1-methyl-1H-pyrazol-4-yl)amino)imidazo[1,2-a]pyridin-3-yl)ethynyl)-N-(4-((4-methylpiperazin-1-yl)methyl)-3-(trifluoromethyl)phenyl)benzamide] | 0% | 3% | 62% | 83% | 51% | 88% | 97% | 82% | 84% | 6% | 1% | 0%
2 | Cc1cn(-c2cc(NC(=O)c3ccc(C)c(C#Cc4cnc5c(Nc6cnn(C)c6)cccn45)c3)cc(C(F)(F)F)c2)cn1 [Example 12, 4-methyl-N-(3-(4-methyl-1H-imidazol-1-yl)-5-(trifluoromethyl)phenyl)-3-((8-((1-methyl-1H-pyrazol-4-yl)amino)imidazo[1,2-a]pyridin-3-yl)ethynyl)benzamide] | 1% | 28% | 100% | 83% | 66% | 100% | 73% | 96% | 72% | 40% | 0% | 10%
3 | Cc1ccc(NC(=O)C2(C(=O)Nc3ccc(F)cc3)CC2)cc1C#Cc1cnc2c(Nc3cnn(C(C)C)c3)cccn12 [Example 78] | 35% | 85% | 100% | 89% | 69% | 100% | 95% | 100% | 87% | 100% | 4% | 64%
